This experiment deals with eNOS promoter. As to the kind of experiment: Activation of eNOS transcription (eNOS promoter-luciferase reporter gene assay). It counts as cell-based, human. As to conditions: for maximal fold induction: read-out: TIR (max). As to the method: Measurement of activation of eNOS transcription Activation of eNOS transcription was measured as described in detail in Li et al. “Activation of protein kinase C alpha and/or epsilon enhances transcription of the human endothelial nitric oxide synthase gene”, Mol. Pharmacol. 1998; 53: 630-637. Briefly, a 3.5 kB long fragment 5′ of the starting codon of the eNOS gene was cloned, sequenced and cloned in firefly luciferase expression plasmids to monitor activation of the eNOS promoter by reporter gene activity. A human endothelial cell line stable transfected and expressing this promoter-reporter construct was used for compound testing. Cells were incubated for 18 h with compounds. All compounds were dissolved in sterile DMSO. A final concentration of 0.5% DMSO in complete medium was allowed. Induction of reporter gene expression in these cells was measured using a standard luciferase assay system (Promega, Cat. No E150) according to the manufacturer's instructions. Luciferase induction in cells incubated with compounds were compared to those incubated with solvent alone. The ratio of both activities (transcription induction ratio, TIR) was plotted as a function of compound concentration. […] EC50 values of transcription induction ratios as a function of compound concentration were determined graphically.

[1] abbreviates: Homo sapiens, 18 h, maximum transcription induction ratio (luciferase with compound / solvent alone), 18 h incubation.
[2] abbreviates: Homo sapiens, Endothelial cell, 18 h, EC50 of transcription induction ratio, determined graphically, human endothelial cell line, 18 h incubation, read-out: EC-50.
[3] abbreviates: EC50 of transcription induction ratio, determined graphically, human endothelial cell line, 18 h incubation, read-out: EC-50.
Where [4] appears, read: maximum transcription induction ratio (luciferase with compound / solvent alone), 18 h incubation.

The results in this text go back to patent US7713963B2, “Acylated indanyl amines and their use as pharmaceuticals” (sanofi-aventis Deutschland GmbH, priority 2001, dated 2010).

Structures are written as SMILES. Where two headings read alike, the source gives them in different places.

Turning to `Cc1ccc(C)n1-c1ccc(C(=O)NC2Cc3ccccc3C2)cc1` [Compound 327, 4-(2,5-DIMETHYL-PYRROL-1-YL)-N-INDAN-2-YL-BENZAMIDE], the maximal fold induction under setting [1] turned out to be 2.5. For the same molecule, under setting [2], the EC50 came out at 2600 nM.

Regarding `O=C(NC1Cc2ccccc2C1)c1ccc(-c2ccccn2)cc1` [Compound 436, N-INDAN-2-YL-4-PYRIDIN-2-YL-BENZAMIDE], the maximal fold induction under setting [1] is 2.6. The EC50 under setting [2] worked out at 18000 nM.

Turning to `CCc1cccc2c1CC(NC(=O)c1ccc(F)cc1)C2` (stereo not drawn) [Compound 428, N-(4-ETHYL-INDAN-2-YL)-4-FLUORO-BENZAMIDE], the maximal fold induction under setting [1] was found to be 2.8. Besides, the EC50 under setting [2] came out at 841 nM.

Regarding `O=C(NC1Cc2ccccc2C1)c1cccc(-c2cccnc2)c1` [Compound 432, N-INDAN-2-YL-3-PYRIDIN-3-YL-BENZAMIDE], under setting [1], the maximal fold induction was found to be 2.5. Moreover, the EC50 under setting [2] was 9600 nM.

With `O=C(NC1Cc2ccccc2C1)c1cccc(C(=O)c2ccccc2)c1` [Compound 287, 3-BENZOYL-N-INDAN-2-YL-BENZAMIDE], the maximal fold induction under setting [1] came to 2.9. Also, the EC50 under setting [2] came to 13000 nM.

Regarding `CCNc1ccc(C(=O)NC2Cc3ccccc3C2)cc1` [Compound 268, 4-ETHYLAMINO-N-INDAN-2-YL-BENZAMIDE], the maximal fold induction under setting [1] came out at 3. Also, the EC50 under setting [2] came out at 485 nM.

Turning to `COc1ccc(C(=O)NC2Cc3ccccc3C2)cc1Cl` [Compound 31, 3-CHLORO-4-METHOXY-N-INDAN-2-YL-BENZAMIDE], under setting [1], the maximal fold induction was 3.05. Besides, the EC50 under setting [2] was determined as 6000 nM.

With `Cc1ccc(F)cc1C(=O)NC1Cc2ccccc2C1` [Compound 248, 5-FLUORO-N-INDAN-2-YL-2-METHYL-BENZAMIDE], the maximal fold induction under setting [1] came out at 2.8. Also, the EC50 under setting [2] worked out at 7800 nM.

`O=C(NC1Cc2cccc(C(F)(F)F)c2C1)c1ccc(F)cc1` (stereo not drawn) [Compound 439, 4-FLUORO-N-(4-TRIFLUOROMETHYL-INDAN-2-YL)-BENZAMIDE]: the maximal fold induction under setting [1] was 2.6. Besides, the EC50 under setting [2] is 8900 nM.

With `O=C(NC1Cc2ccccc2C1)c1cccc(F)c1F` [Compound 302, 2,3-DIFLUORO-N-INDAN-2-YL-BENZAMIDE], the maximal fold induction under setting [1] was 2.8. The EC50 under setting [2] was 27000 nM.

`O=C(NC1Cc2ccccc2C1)c1cccc(Cl)c1Cl` [Compound 276, 2,3-DICHLORO-N-INDAN-2-YL-BENZAMIDE]: the maximal fold induction under setting [1] was 3. The EC50 under setting [2] stood at 157 nM.

`Cc1cccc2c1CC(NC(=O)c1ccc(F)cc1)C2` (single isomer, unassigned; (+)) [Compound 1b, (+)-4-Fluoro-N-(4-methyl-indan-2-yl)-benzamide]: under setting [3], the EC50 worked out at 200 nM. Besides, under setting [4], the “TIR (max)” value turned out to be 3.00.

On to `Cc1cccc(C(=O)NC2Cc3ccccc3C2)c1F` [Compound 249, 2-FLUORO-N-INDAN-2-YL-3-METHYL-BENZAMIDE], for which the maximal fold induction under setting [1] was determined as 2.5. Further, under setting [2], the EC50 is 15000 nM.

Consider `Cc1ccc(F)c(C(=O)NC2Cc3ccccc3C2)c1` [Compound 266, 2-FLUORO-N-INDAN-2-YL-5-METHYL-BENZAMIDE], for which the maximal fold induction under setting [1] is 2.5. Under setting [2], the EC50 stood at 22000 nM.

For `O=C(NC1Cc2ccccc2C1)c1ccc(Br)s1` [Compound 41, 5-BROMO-THIOPHEN-2-CARBOXYLIC ACID-INDAN-2-YLAMIDE], the maximal fold induction under setting [1] amounted to 2.4. For the same molecule, under setting [2], the EC50 was determined as 180 nM.

For the molecule `O=C(NC1Cc2cccc(I)c2C1)c1ccc(F)cc1` (stereo not drawn) [Compound 408, 4-FLUORO-N-(4-IODO-INDAN-2-YL)-BENZAMIDE], the maximal fold induction under setting [1] turned out to be 2.5. Also, the EC50 under setting [2] stood at 11000 nM.

For the molecule `Nc1ccccc1C(=O)NC1Cc2ccccc2C1` [Compound 73, 2-AMINO-N-INDAN-2-YL-BENZAMIDE], under setting [1], the maximal fold induction turned out to be 4. Moreover, under setting [2], the EC50 amounted to 700 nM.

Consider `CC(C)Oc1ccc(C(=O)NC2Cc3ccccc3C2)cc1` [Compound 28, 4-ISOPROPYLOXY-N-INDAN-2-YL-BENZAMIDE], for which, under setting [1], the maximal fold induction came to 4.4. Besides, the EC50 under setting [2] stood at 2500 nM.

Take `Cc1ccc2c(c1)CC(NC(=O)c1ccc(F)cc1)C2` (stereo not drawn) [Compound 5, 4-FLUORO-N-(5-METHYL-INDAN-2-YL)-BENZAMIDE]: under setting [1], the maximal fold induction is 2.5. Also, under setting [2], the EC50 stood at 30000 nM.

Consider `O=C(NC1Cc2ccccc2C1)c1ccc(Oc2ccccc2)cc1` [Compound 32, 4-PHENOXY-N-INDAN-2-YL-BENZAMIDE], for which the maximal fold induction under setting [1] worked out at 4. Also, the EC50 under setting [2] amounted to 1700 nM.

In the case of `CCCc1c(C(=O)NC2Cc3ccccc3C2)cnn1-c1ccc(Cl)cc1` [Compound 322, 1-(4-CHLORO-PHENYL)-5-PROPYL-1H-PYRAZOLE-4-CARBOXYLIC ACID INDAN-2-YLAMIDE], the maximal fold induction under setting [1] worked out at 2.3. For the same molecule, the EC50 under setting [2] worked out at 23000 nM.

Take `Cc1cc(C(=O)NC2Cc3ccccc3C2)c(C)n1Cc1ccncc1` [Compound 230, 2,5-DIMETHYL-1-PYRIDIN-4-YLMETHYL-1H-PYRROLE-3-CARBOXYLIC ACID INDAN-2-YLAMIDE]: under setting [1], the maximal fold induction came out at 4. For the same molecule, under setting [2], the EC50 was found to be 820 nM.

As to `CC1=C(C(=O)NC2Cc3ccccc3C2)Cc2ccccc21` [Compound 251, 3-METHYL-1H-INDENE-2-CARBOXYLIC ACID INDAN-2-YLAMIDE], under setting [1], the maximal fold induction was found to be 2.6. In addition, the EC50 under setting [2] was 13000 nM.

In the case of `O=C(NC1Cc2cc(Br)c(Br)cc2C1)c1ccc(F)cc1` [Compound 397, N-(5,6-DIBROMO-INDAN-2-YL)-4-FLUORO-BENZAMIDE], the maximal fold induction under setting [1] amounted to 1.7. Also, under setting [2], the EC50 was determined as 30000 nM.

`Cc1nc(C)c(C(=O)NC2Cc3ccccc3C2)s1` [Compound 233, 2,4-DIMETHYL-THIAZOLE-5-CARBOXYLIC ACID INDAN-2-YLAMIDE]: the maximal fold induction under setting [1] came out at 2.5. Moreover, the EC50 under setting [2] is 13000 nM.

Consider `O=C(NC1Cc2ccccc2C1)c1cccc2ccccc12` [Compound 294, NAPHTHALENE-1-CARBOXYLIC ACID INDAN-2-YLAMIDE], for which, under setting [1], the maximal fold induction is 2.2. Moreover, the EC50 under setting [2] came to 14000 nM.

For the molecule `O=C(NC1Cc2ccccc2C1)c1ccc(Br)cc1F` [Compound 350, 4-BROMO-2-FLUORO-N-INDAN-2-YL-BENZAMIDE], under setting [1], the maximal fold induction was 2.9. Moreover, the EC50 under setting [2] is 523 nM.

For the molecule `O=C(NC1Cc2ccccc2C1)c1cc(Cl)ccc1F` [Compound 330, 5-CHLORO-2-FLUORO-N-INDAN-2-YL-BENZAMIDE], the maximal fold induction under setting [1] was 2.2. Besides, the EC50 under setting [2] stood at 12000 nM.

On to `O=C(NC1Cc2ccccc2C1)c1ccccc1F` [Compound 273, 2-FLUORO-N-INDAN-2-YL-BENZAMIDE], for which the maximal fold induction under setting [1] was determined as 2.8. Also, the EC50 under setting [2] amounted to 2600 nM.

As to `O=C(NC1Cc2ccccc2C1)c1ccc(C(F)(F)F)nc1` [Compound 236, N-INDAN-2-YL-6-TRIFLUOROMETHYL-NICOTINAMIDE], the maximal fold induction under setting [1] amounted to 2. For the same molecule, the EC50 under setting [2] stood at 22000 nM.

For the molecule `Cc1cc(C(=O)NC2Cc3ccccc3C2)c(C)[nH]1` [Compound 216, 2,5-DIMETHYL-1H-PYRROLE-3-CARBOXYLIC ACID INDAN-2-YLAMIDE], under setting [1], the maximal fold induction came to 2.8. In addition, under setting [2], the EC50 worked out at 700 nM.

Consider `O=C(NC1Cc2ccccc2C1)c1sc2cccc(Cl)c2c1Cl` [Compound 329, 3,4-DICHLORO-BENZO[B]THIOPHENE-2-CARBOXYLIC ACID INDAN-2-YLAMIDE], for which, under setting [1], the maximal fold induction came out at 1.5. Besides, the EC50 under setting [2] was 2200 nM.

In the case of `Cc1cc(C)c(C(=O)NC2Cc3ccccc3C2)c(N)n1` [Compound 187, 2-AMINO-N-INDAN-2-YL-4,6-DIMETRYL-NICOTINAMIDE], the EC50 under setting [3] turned out to be 4400 nM. For the same molecule, the “TIR (max)” value under setting [4] turned out to be 2.5.

For `O=C(NC1Cc2ccccc2C1)c1sc2cc(F)ccc2c1Cl` [Compound 324, 3-CHLORO-6-FLUORO-BENZO[B]THIOPHENE-2-CARBOXYLIC ACID INDAN-2-YLAMIDE], under setting [1], the maximal fold induction came to 1.7. Moreover, the EC50 under setting [2] is 2100 nM.

Consider `CSc1ccc(C(=O)NC2Cc3ccccc3C2)cc1` [Compound 292, N-INDAN-2-YL-4-METHYLSULFANYL-BENZAMIDE], for which the maximal fold induction (Homo sapiens, 18 h) came to 2.9. Besides, the EC50 (Homo sapiens, Endothelial cell, 18 h) was found to be 39 nM.

In the case of `Cc1ccc(C(=O)NC2Cc3ccccc3C2)cc1Cl` [Compound 34, 3-CHLORO-4-METHYL-N-INDAN-2-YL-BENZAMIDE], the maximal fold induction under setting [1] stood at 3.4. Besides, the EC50 under setting [2] is 1700 nM.

In the case of `O=C(NC1Cc2ccccc2C1)c1ccc(F)cc1Br` [Compound 61, 2-BROMO-4-FLUORO-N-INDAN-2-YL-BENZAMIDE], the maximal fold induction under setting [1] was 2.6. Further, the EC50 under setting [2] stood at 700 nM.

With `COC(=O)c1cccc(C(=O)NC2Cc3ccccc3C2)c1` [Compound 243, N-INDAN-2-YL-ISOPHTHALAMIC ACID METHYL ESTER], the maximal fold induction under setting [1] was found to be 2.8. The EC50 under setting [2] came out at 110 nM.

On to `O=C(NC1Cc2ccc(F)cc2C1)c1ccc(F)cc1` (stereo not drawn) [Compound 4, 4-FLUORO-N-(5-FLUORO-INDAN-2-YL)-BENZAMIDE], for which the maximal fold induction under setting [1] is 2.95. Also, the EC50 under setting [2] was 3000 nM.
